A compilation of properties of binary mixtures (doi:10.1039/c6ra15476j)

Assay: xn = mol fraction of the nth substance listed
Conditions: 100 kPa

CCCC[n+]1ccn(C)c1.F[P-](F)(F)(F)(F)F + CC(=O)c1ccccc1
x2 = 0
Conditions	viscosity [mPa·s]
293.15 K	293
303.15 K	162
323.15 K	62
333.15 K	42.3

CCOS(=O)(=O)[O-].CC[n+]1ccn(C)c1 + CC(=O)c1ccccc1
x2 = 0
Conditions	speed of sound [m/s]	viscosity [mPa·s]
293.15 K	1695	98
303.15 K	1670	60
323.15 K	1623	27.9

CC[n+]1ccn(C)c1.F[B-](F)(F)F + CC(=O)c1ccccc1
x2 = 0
Conditions	speed of sound [m/s]	viscosity [mPa·s]
303.15 K	1618	28.2
313.15 K	1595	20
323.15 K	1572	14.9
333.15 K	1550	11.5

CC(=O)c1ccccc1 + CCCC[n+]1ccn(C)c1.F[P-](F)(F)(F)(F)F
viscosity [mPa·s]
Conditions	293.15 K	303.15 K	313.15 K	323.15 K	333.15 K
x1 = 0.0504	176	89	62	41	27.6
x1 = 0.0913	129	68	45.8	–	–
x1 = 0.1983	88	48.5	35	26.5	18.6
x1 = 0.2999	81	–	32.3	23.2	–
x1 = 0.3908	73	40.9	28.3	–	14.2
x1 = 0.4973	60	32.4	–	15.2	10.2
x1 = 0.5999	–	22.9	–	11.6	9.3
x1 = 0.697	35.6	18.5	12.3	–	8.3
x1 = 0.7999	28.2	14.3	8	–	4.67
x1 = 0.9002	16.2	7.7	5.6	4.34	–
x1 = 0.95	8.4	4.64	3.57	–	1.62
x1 = 1	1.91	1.65	1.37	1.17	–

CC(=O)c1ccccc1 + CCOS(=O)(=O)[O-].CC[n+]1ccn(C)c1
Conditions	speed of sound, 293.15 K [m/s]	speed of sound, 303.15 K [m/s]	speed of sound, 313.15 K [m/s]	speed of sound, 323.15 K [m/s]	speed of sound, 333.15 K [m/s]	viscosity, 293.15 K [mPa·s]	viscosity, 303.15 K [mPa·s]	viscosity, 313.15 K [mPa·s]	viscosity, 323.15 K [mPa·s]	viscosity, 333.15 K [mPa·s]
x1 = 0.0505	1691	1663	1637	1611	–	68	44	29	20.6	–
x1 = 0.0997	1684	1656	1628	1601	–	56	35	23.9	17.1	–
x1 = 0.2	1669	–	1610	1581	1521	40	–	18	13.1	11.9
x1 = 0.3008	1652	1621	1591	–	1503	30.2	21.3	14.5	–	9.6
x1 = 0.4002	1634	–	1571	1540	1485	22.6	–	11.9	9.3	8.3
x1 = 0.5006	1615	1583	1550	1518	–	14.9	11.8	9.8	8	6.8
x1 = 0.5999	1596	1562	1529	–	1448	10.1	8.4	7.2	–	4.9
x1 = 0.6921	1577	1542	–	1473	1428	6.9	6.6	–	3.4	3.6
x1 = 0.7973	–	–	1481	1446	1404	–	–	4.6	2.19	1.86
x1 = 0.8999	1526	1489	–	–	1379	3.7	2.88	–	–	1.66
x1 = 0.9502	1511	–	–	1402	1365	3.04	–	–	1.68	1.46
x1 = 1	1497	–	–	–	1352	1.91	–	–	–	1.02
